Assay results taken from patent US20190018003A1, “TUMOR DISCRIMINATION METHOD, DIAGNOSTIC AGENT FOR TUMOR, AND SENSITIZER FOR TUMOR DIAGNOSIS” (TOTO LTD., priority 2017, published 2019).

How the values were obtained:
[1] = test system: T24 urinary bladder cancer cells; experiment: Fluorescence enhancement in T24 cells by separate administration of fluorescent dye (ALA) and particles, inverted fluorescence microscope; format: cell-based, human
Procedure: (§1) T24 cells (T24, JCRB0711) were prepared. This cell line was subcultured in an MEM medium (MEM, GlutaMAX™ supplement (Thermo Fisher Scientific), 10 v/v % FBS (Thermo Fischer Scientific)). The cultured cells which reached a logarithmic growth phase 3 days or 4 days later were peeled off with Trypsin/EDTA (Thermo Fisher Scientific) and, after the reaction was terminated in an MEM medium, centrifuged. The cell pellet obtained was suspended in an MEM medium. The cell suspension was subjected to measurement of cell density, inoculated onto a 6-well plate at a density of 3.6×10^4 cells/2 ml/well, and cultured for 3 days.
(§2) An aqueous ALA solution (50 mmol/l) was mixed into an MEM medium (MEM, GlutaMAX™ supplement (Thermo Fisher Scientific)) to form a 2 mmol/l ALA solution. Further, an aqueous solution of light scattering particles (2) (ii) was mixed into an MEM medium to form a 0.001 w/v % light scattering particle solution.
Evaluation was performed as follows. The medium of the T24 cells on a 6-well plate, obtained in Example 3, was removed by an aspirator, and thereto was added 2 ml of PBS (−) (Thermo Fisher Scientific). Once again, PBS (−) was removed by an aspirator, thereto was added 2 ml of an ALA solution, and the system was cultured for 2 hours. Then, the ALA solution on the 6-well plate was removed by an aspirator, thereto was added 2 ml of a light scattering particle solution, and the system was cultured for 2 hours. Further, the particle solution on the 6-well plate was removed by an aspirator, the residue was washed with HBSS (−) (Thermo Fisher Scientific), HBSS (−) was removed gain by an aspirator, to the residue was added 2 ml of HBSS (−), and the solution was used for observation and detection of fluorescence.
Observation and detection of fluorescence was performed by using an inverted fluorescence microscope (ECLIPSE Ti-E, Nikon). By using a halogen light source lamp and a 450 nm dichroic mirror, excitation light was irradiated through a 410 nm band pass filter of a 25 nm half-band width, and fluorescence was passed through a 600 nm long-pass filter. There were used an eyepiece of 10 times magnification and an objective lens of 20 times magnification and numerical aperture of 0.75. The irradiation aperture, exposure time, and gain were set to ND=8, 400 ms, and 14.0×, respectively. Fluorescent images were acquired by a cooling CCD color camera (DS-Fi3, Nikon) as digital images. By using an image analysis device IS-Elements AR ver.4.60 (Nikon), fluorescence was detected by subtracting luminance corresponding to dark noise from the image acquired, thereafter obtaining average luminance of all pixels where fluorescence is acquired, and calculating a fluorescence intensity. Also, the image acquired was observed visually.
Relative fluorescence intensity was calculated by using the fluorescence intensities acquired above according to the following formula:
[relative fluorescence intensity]=[fluorescence intensity under each condition]/[fluorescence intensity immediately after irradiation of observation light in the case of administration of fluorescent dye only]. […]
An aqueous ALA solution (50 mmol/l) was mixed into an MEM medium (MEM, GlutaMAX™ supplement (Thermo Fisher Scientific)) to form a 2 mmol/l ALA solution. An aqueous solution of silica particles having a particle size of 100 nm (sicastar, Silica Microsphere, Plain, 25 mg/ml, produced by Polyscience) was mixed into the MEM medium to form a 0.01 w/v % silica particle solution.
Evaluation was performed by removing the medium of the T24 cells on a 6-well plate, obtained in Example 3, under conditions where, in Example 4, PBS (−) and HBSS (−) were respectively changed to MEM medium and MEM medium (no glutamine, no phenol red (Thermo Fisher Scientific)), and the solution was used for detection of fluorescence. […]

[2] = test system: WI-38 immortalized normal cells; experiment: Discrimination test, fluorescence in WI-38 immortalized normal cells after ALA and particles (separate plates); format: cell-based, human; details: Example 10; WI-38 cell line; ALA 2 mmol/l, particles 0.001 w/v %
Procedure: as §1, with “Immortalized cell line WI-38” for “T24”, “(WI-38 VA13 sub 2 RA, JCRB9057) of normal diploid fibroblast cell line WI-38” for “(T24, JCRB0711)”, “5.0×10^4” for “3.6×10^4”
as §2
The media of the T24 cells and the WI-38 cells on 6-well plates, obtained in Example 3, were respectively removed by an aspirator, and detection was performed in the same manner as in Example 4, and relative fluorescence intensities were calculated.

Work on `NCC(=O)CCC(=O)O` [fluorescent dye, 5-aminolevulinic acid] yielded a Relative fluorescence intensity ([1]; Example 4, T24, ALA 2 mmol/l 2 h, then particles 0.001 w/v % 2 h, 50 seconds after observation light irradiation) of 0.4, a Relative fluorescence intensity ([1]; Example 4, T24, ALA 2 mmol/l 2 h, then particles 0.001 w/v % 2 h, 150 seconds after observation light irradiation) of 0.1 and a Relative fluorescence intensity ([1]; Example 4, T24, ALA 2 mmol/l 2 h, then particles 0.001 w/v % 2 h, immediately after observation light irradiation, relative to dye only immediately after irradiation) of 1.0. It also gave a Relative fluorescence intensity ([1]; Example 7, T24, ALA 2 mmol/l, administration of fluorescent dye only) of 1.0, a Relative fluorescence intensity ([1]; Example 10, T24 cell line, ALA 2 mmol/l, particles 0.001 w/v %) of 1.0 and a Relative fluorescence intensity ([1]; Example 12, T24, ALA 2 mmol/l, silica particles 0.01 w/v %, immediately after observation light irradiation) of 1.0. It also gave a Relative fluorescence intensity ([1]; Example 13, T24, ALA 2 mmol/l, polystyrene particles 0.01 w/v %, immediately after observation light irradiation) of 1.0, a Relative fluorescence intensity ([1]; Example 14, T24, ALA 2 mmol/l, particles 0.001 w/v %, immediately after observation light irradiation) of 1.0 and a Relative fluorescence intensity ([1]; Example 15, T24, ALA 2 mmol/l, particles 0.001 w/v %, immediately after observation light irradiation) of 1.0. For the same compound, the Relative fluorescence intensity [2] was 0.7.
